Measurements as given in patent US8841413B2, “Antidiabetic compounds” (Cadila Healthcare Limited, priority 2006, dated 2014).

Experiments:
C57BL/6J mice = assay: Acute single dose 120-min time-course experiment, in vivo glucose reduction in C57BL/6J mice; design: unit not given here; details: male C57BL/6J mice, Mean ± SEM
Description: All the animal experiments were carried out according to the internationally valid guidelines following approval by the ‘Zydus Research Center animal ethical committee’. […] Two days prior to the study, the animals were randomised and divided into 5 groups (n=6), based upon their fed glucose levels. On the day of experiment, food was withdrawn from all the cages, water was given ad-libitum and were kept for overnight fasting. Vehicle (normal saline)/test/standard compounds were administered intraperitoneally (i.p.) or orally, on a body weight basis. […] Blood samples were centrifuged and the separated serum was immediately subjected for the glucose estimation. Serum for insulin estimation was stored at −70° C. until used for the insulin estimation. The glucose estimation was carried out with DPEC-GOD/POD method (Ranbaxy Fine Chemicals Limited, Diagnostic division, India), using Spectramax-190, in 96-microwell plate reader (Molecular devices Corporation, Sunnyvale, Calif.). […] The AUC and BCAUC obtained from graphs were analyzed for one way ANOVA, followed by Dunnett's post test, using Graph Pad prism software. Furthermore, the insulin estimation was carried out using rat/mouse insulin ELISA kit (Linco research, Mo. USA).

db/db mice = assay: In vivo glucose reduction in db/db mice; details: oral (p.o) administration, FIG. 10
Description: Acute single dose 120-min time-course experiments were carried out in male C57BL/6J or db/db mice, age 8-12 weeks, bred in-house. Animals were housed in groups of 6 animals per cage, for a week, in order to habituate them to vivarium conditions (25±4° C., 60-65% relative humidity, 12:12 h light:dark cycle, with lights on at 7.30 am). All the animal experiments were carried out according to the internationally valid guidelines following approval by the ‘Zydus Research Center animal ethical committee’. […] Two days prior to the study, the animals were randomised and divided into 5 groups (n=6), based upon their fed glucose levels. On the day of experiment, food was withdrawn from all the cages, water was given ad-libitum and were kept for overnight fasting. Vehicle (normal saline)/test/standard compounds were administered intraperitoneally (i.p.) or orally, on a body weight basis. […] The glucose estimation was carried out with DPEC-GOD/POD method (Ranbaxy Fine Chemicals Limited, Diagnostic division, India), using Spectramax-190, in 96-microwell plate reader (Molecular devices Corporation, Sunnyvale, Calif.). […] The AUC and BCAUC obtained from graphs were analyzed for one way ANOVA, followed by Dunnett's post test, using Graph Pad prism software. […]

[1] = system: RIN5F (Rat Insulinoma) cells; assay: In vitro glucose-dependent insulin secretion (RIN5F cell assay); format: cell-based; details: 16.7 mM glucose load, mean ± S.D., n = 3
human glucagon receptor = molecular target: T1, human glucagon receptor (Homo sapiens, UniProt P47871); assay: In vitro human glucagon antagonist activity (inhibition of cAMP production), CHO/human glucagon R cells; format: cell-based
T1 construct: The full-length cDNA was cloned in pcDNA3.1(Invitrogen); expressed in transfected cells

[2] = Stability in human plasma; format: in vitro ADME; details: for % degradation in 24 h when incubated with human plasma: 2 μM, 37° C.; for half-life at 2 μM: human, pooled human plasma, pH 7.8, 37° C., read-out: half-life (t1/2) in human plasma
Method in brief: (§1)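 UV detection at 206 nm tracked the remaining material after HPLC separation at a flow of 1 mL/min in TFA/H2O. Incubations had been ended by adding aqueous TFA (10%, v/v), and eluted peaks were identified by ESI-MS.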

[3] = Stability in simulated intestinal fluid; format: in vitro ADME; details: 2 μM, 37° C., pH 7.5
Method in brief: as §1

DPP IV = DPP IV (Homo sapiens, UniProt P27487); assay: Stability against DPP IV enzyme; format: in vitro ADME; details: for % degradation in 24 h when incubated with DPP-IV enzyme: 2 μM, 37° C.; for half-life at 2 μM: DPP IV enzyme, pH 7.8, 37° C., read-out: half-life (t1/2) with DPP-IV enzyme
Method in brief: as §1

[4] = Stability in simulated gastric fluid; format: in vitro ADME; details: 2 μM, 37° C., pH 1.5, pepsin
Method in brief: as §1

[5] = Stability against liver microsomes; format: in vitro ADME, human; details: for % degradation in 24 h when incubated with liver microsomes: 2 μM, 37° C.; for half-life at 2 μM: human, human liver microsomes, pH 7.8, 37° C., read-out: half-life (t1/2) with liver microsomes
Method in brief: as §1

[6] = 1 nM test compound (fourth concentration column, between 100 nM and 10 μM) with saturated concentration of glucagon peptide
[7] = 1 nM test compound with saturated concentration of glucagon peptide
[8] = 10 nM test compound with saturated concentration of glucagon peptide
[9] = 100 nM test compound with saturated concentration of glucagon peptide
[10] = 10 μM test compound with saturated concentration of glucagon peptide

Chain of DPP IV (P27487 whole entry, species assumed): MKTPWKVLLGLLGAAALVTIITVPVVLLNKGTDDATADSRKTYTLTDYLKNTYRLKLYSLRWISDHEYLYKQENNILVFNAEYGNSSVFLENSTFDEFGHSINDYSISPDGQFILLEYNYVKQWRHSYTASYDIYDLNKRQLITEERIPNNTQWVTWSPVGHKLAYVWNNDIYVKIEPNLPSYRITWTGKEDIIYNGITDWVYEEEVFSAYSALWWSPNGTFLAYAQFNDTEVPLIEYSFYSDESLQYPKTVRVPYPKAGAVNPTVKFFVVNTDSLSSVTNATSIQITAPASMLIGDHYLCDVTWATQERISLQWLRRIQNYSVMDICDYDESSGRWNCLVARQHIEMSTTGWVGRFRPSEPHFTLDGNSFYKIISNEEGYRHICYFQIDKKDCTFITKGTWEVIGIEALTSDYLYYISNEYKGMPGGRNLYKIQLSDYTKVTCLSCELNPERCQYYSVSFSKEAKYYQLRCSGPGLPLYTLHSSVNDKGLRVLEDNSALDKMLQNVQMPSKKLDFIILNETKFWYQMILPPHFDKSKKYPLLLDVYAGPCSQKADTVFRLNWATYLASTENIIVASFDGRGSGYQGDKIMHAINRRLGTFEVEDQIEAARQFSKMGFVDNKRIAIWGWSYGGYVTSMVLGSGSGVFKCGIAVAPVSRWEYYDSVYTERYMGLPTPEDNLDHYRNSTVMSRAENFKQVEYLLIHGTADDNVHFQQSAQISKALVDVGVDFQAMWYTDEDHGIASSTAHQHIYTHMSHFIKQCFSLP
T1 sequence (P47871 26-477): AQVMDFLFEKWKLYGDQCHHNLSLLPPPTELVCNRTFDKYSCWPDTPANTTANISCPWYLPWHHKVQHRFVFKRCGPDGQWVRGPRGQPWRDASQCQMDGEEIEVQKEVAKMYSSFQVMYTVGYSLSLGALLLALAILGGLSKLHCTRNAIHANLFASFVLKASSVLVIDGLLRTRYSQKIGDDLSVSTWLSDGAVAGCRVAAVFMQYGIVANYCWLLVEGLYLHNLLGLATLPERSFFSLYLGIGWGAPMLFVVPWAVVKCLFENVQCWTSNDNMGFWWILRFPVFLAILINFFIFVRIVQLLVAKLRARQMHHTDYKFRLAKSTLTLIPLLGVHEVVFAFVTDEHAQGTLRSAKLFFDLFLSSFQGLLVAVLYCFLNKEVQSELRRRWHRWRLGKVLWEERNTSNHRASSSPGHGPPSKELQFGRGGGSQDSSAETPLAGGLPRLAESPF

Row | Structure (SMILES) | Insulin secretion ([1]; 0.1 nM test compd.) | Insulin secretion ([1]; 1 nM test compd.) | Insulin secretion ([1]; 10 nM test compd.) | Human Glucagon receptor antagonistic activity, inhibition of cAMP production of Glucagon peptide (human glucagon receptor; [6]) | Human Glucagon receptor antagonistic activity, inhibition of cAMP production of Glucagon peptide (human glucagon receptor; [7]) | Human Glucagon receptor antagonistic activity, inhibition of cAMP production of Glucagon peptide (human glucagon receptor; [8]) | Human Glucagon receptor antagonistic activity, inhibition of cAMP production of Glucagon peptide (human glucagon receptor; [9]) | Human Glucagon receptor antagonistic activity, inhibition of cAMP production of Glucagon peptide (human glucagon receptor; [10]) | % degradation in 24 h when incubated with human plasma [2] | half-life at 2 μM [2] | % degradation in 24 h when incubated with simulated intestinal fluid [3] | half-life (t1/2) in simulated intestinal fluid [3] | % degradation in 24 h when incubated with DPP-IV enzyme (DPP IV) | half-life at 2 μM (DPP IV) | % degradation in 24 h when incubated with simulated gastric fluid [4] | half-life (t1/2) in simulated gastric fluid [4] | % degradation in 24 h when incubated with liver microsomes [5] | half-life at 2 μM [5] | also measured
1 | CCc1cc(OC)ccc1-c1ccc(CC(NC(=O)[C@H](CC(=O)O)NC(=O)[C@H](CO)NC(=O)[C@@H](NC(=O)C(C)(Cc2ccccc2F)NC(=O)[C@@H](NC(=O)CNC(=O)[C@H](CCC(N)=O)NC(=O)C(C)(C)NC(=O)[C@@H](N)Cc2c[nH]cn2)[C@@H](C)O)[C@@H](C)O)C(=O)NC(Cc2ccc(-c3ccccc3C(F)(F)F)cc2)C(N)=O)cc1 (single isomer, unassigned) [Seq. ID. No. 32, H-Aib-QGT-(α-Me-2F-Phe)-TSD-Bip(OMe)-Bip(2CF3)] | – | – | – | – | – | – | – | – | – | – | – | – | – | – | – | – | – | – | blood glucose level (C57BL/6J mice; 10 nM/kg, i.p, 0 min): 182 ± 2.3; blood glucose level (C57BL/6J mice; 10 nM/kg, i.p, 30 min): 110 ± 2.3; blood glucose level (C57BL/6J mice; 10 nM/kg, i.p, 60 min): 112 ± 3.0; blood glucose level (C57BL/6J mice; 10 nM/kg, i.p, 120 min): 112 ± 1.9; blood glucose level (C57BL/6J mice; 2 μM/kg, oral, 0 min): 181 ± 2.5; blood glucose level (C57BL/6J mice; 2 μM/kg, oral, 30 min): 117 ± 3.3; blood glucose level (C57BL/6J mice; 2 μM/kg, oral, 60 min): 112 ± 4.0; blood glucose level (C57BL/6J mice; 2 μM/kg, oral, 120 min): 108 ± 2.9; in vivo glucose reduction (in words) (db/db mice): glucose reduction
2 | CCc1cc(OC)ccc1-c1ccc(CC(NC(=O)[C@H](CC(=O)O)NC(=O)[C@H](CO)NC(=O)[C@@H](NC(=O)C(C)(Cc2ccccc2F)NC(=O)[C@@H](NC(=O)CNC(=O)[C@H](CCC(N)=O)NC(=O)[C@H](C)NC(=O)[C@@H](N)Cc2c[nH]cn2)[C@@H](C)O)[C@@H](C)O)C(=O)NC(Cc2ccc(-c3ccccc3C)nc2)C(N)=O)cc1 (single isomer, unassigned) [compound 26] | 12.1 ± 0.51 pg/µg/h | 14.1 ± 0.19 pg/µg/h | 28.1 ± 0.29 pg/µg/h | 4 ± 0.01 pmol/ml/μg prt | 15 ± 0.11 pmol/ml/μg prt | 12 ± 0.13 pmol/ml/μg prt | 8 ± 0.09 pmol/ml/μg prt | 2 ± 0.08 pmol/ml/μg prt | 71% | 8 h | 40% | (6) h | 70% | 9 h | 14% | (8) h | 78% | 1 h | –
3 | CCc1cc(OC)ccc1-c1ccc(CC(NC(=O)[C@H](CC(=O)O)NC(=O)[C@H](CO)NC(=O)[C@@H](NC(=O)C(C)(Cc2ccccc2F)NC(=O)[C@@H](NC(=O)CNC(=O)[C@H](CCC(N)=O)NC(=O)[C@H](C)NC(=O)[C@@H](N)Cc2c[nH]cn2)[C@@H](C)O)[C@@H](C)O)C(=O)NC(Cc2ccc(-c3ccccc3F)cc2)C(N)=O)cc1 (single isomer, unassigned) [compound 27] | 12.6 ± 0.25 pg/µg/h | 15.3 ± 0.31 pg/µg/h | 29.7 ± 0.48 pg/µg/h | 3 ± 0.12 pmol/ml/μg prt | 14 ± 0.02 pmol/ml/μg prt | 11 ± 0.03 pmol/ml/μg prt | 7 ± 0.22 pmol/ml/μg prt | 0 pmol/ml/μg prt | 70% | 8 h | 41% | (6) h | 86% | 9 h | 15% | (8) h | 77% | 1 h | –
4 | CCc1cc(OC)ccc1-c1ccc(CC(NC(=O)[C@H](CC(=O)O)NC(=O)[C@H](CO)NC(=O)[C@@H](NC(=O)C(C)(Cc2ccccc2F)NC(=O)[C@@H](NC(=O)CNC(=O)[C@H](CCC(N)=O)NC(=O)[C@H](C)NC(=O)[C@@H](N)Cc2c[nH]cn2)[C@@H](C)O)[C@@H](C)O)C(=O)NC(Cc2ccc(-c3ccccc3C(F)(F)F)cc2)C(N)=O)cc1 (single isomer, unassigned) [compound 28] | 12.0 ± 0.14 pg/µg/h | 14.3 ± 0.12 pg/µg/h | 27.8 ± 0.32 pg/µg/h | 0 pmol/ml/μg prt | 4 ± 0.06 pmol/ml/μg prt | 3 ± 0.11 pmol/ml/μg prt | 0 pmol/ml/μg prt | 0 pmol/ml/μg prt | 70% | 8 h | 42% | (6) h | 72% | 9 h | 12% | (8) h | 78% | 1 h | –
